Species: Rattus norvegicus
Assay: Open TG-GATES - Regimen: Daily Repeat
Format: toxicity, organism-based, Sprague-Dawley
Design: regimen Daily Repeat, gender Male, age 6 weeks
Conditions: in vivo, po, 25 mg/kg, route gavage, dose level Middle; for APTT / Bas / Eos / Fbg / Hb / Ht / Lym / MCH / MCHC / MCV / Mono / Neu / PT / Plat / RBC / Ret / WBC: tissue Blood; for KIDNEY_L / KIDNEY_R / KIDNEY_TOTAL: tissue Kidney; for LIVER: tissue Liver; for A/G / ALP / ALT / AST / BUN / CRE / Ca / Cl / DBIL / GLC / IP / K / LDH / Na / PL / RALB / TBIL / TC / TG / TP / gamma-GTP: tissue Plasma

Structure (SMILES): NC1=NC(=O)C(c2ccccc2)O1 (configuration not stated) [PEMOLINE]
- TERMINAL_BW (72 h, time 3 day): 222.4 g
- APTT (72 h, time 3 day): 16.7 s
- Bas (72 h, time 3 day): 0%
- Eos (72 h, time 3 day): 1%
- Fbg (72 h, time 3 day): 288.4 mg/dL
- Hb (72 h, time 3 day): 13.3 g/dL
- Ht (72 h, time 3 day): 39%
- Lym (72 h, time 3 day): 76.2%
- MCH (72 h, time 3 day): 21.3 pg
- MCHC (72 h, time 3 day): 33.9%
- MCV (72 h, time 3 day): 62.6 fL
- Mono (72 h, time 3 day): 3%
- Neu (72 h, time 3 day): 19.4%
- PT (72 h, time 3 day): 13 s
- Plat (72 h, time 3 day): 109.7 x10_4/uL
- RBC (72 h, time 3 day): 623.8 x10_4/ul
- Ret (72 h, time 3 day): 6.1%
- WBC (72 h, time 3 day): 79.9 x10_2/uL
- KIDNEY_L (72 h, time 3 day): 1 g
- KIDNEY_R (72 h, time 3 day): 0.9 g
- KIDNEY_TOTAL (72 h, time 3 day): 1.9 g
- LIVER (72 h, time 3 day): 9.9 g
- A/G (72 h, time 3 day): 0.9
- ALP (72 h, time 3 day): 1654.8 IU/L
- ALT (72 h, time 3 day): 41.8 IU/L
- AST (72 h, time 3 day): 72.6 IU/L
- BUN (72 h, time 3 day): 13.8 mg/dL
- CRE (72 h, time 3 day): 0.2 mg/dL
- Ca (72 h, time 3 day): 10.7 mg/dL
- Cl (72 h, time 3 day): 105.8 meq/L
- DBIL (72 h, time 3 day): 0.018 mg/dL
- GLC (72 h, time 3 day): 177.4 mg/dL
- IP (72 h, time 3 day): 7.5 mg/dL
- K (72 h, time 3 day): 4.1 meq/L
- LDH (72 h, time 3 day): 54.2 IU/L
- Na (72 h, time 3 day): 142.2 meq/L
- PL (72 h, time 3 day): 130.6 mg/dL
- RALB (72 h, time 3 day): 2.6 g/dL
- TBIL (72 h, time 3 day): 0.03 mg/dL
- TC (72 h, time 3 day): 79.8 mg/dL
- TG (72 h, time 3 day): 40 mg/dL
- TP (72 h, time 3 day): 5.4 g/dL
- gamma-GTP (72 h, time 3 day): 1 IU/L
- TERMINAL_BW ([…], time 7 day): 260.2 g
- TERMINAL_BW ([…], time 14 day): 319 g
- TERMINAL_BW ([…], time 28 day): 384.9 g
- APTT ([…], time 7 day): 15.8 s
- Bas ([…], time 7 day): 0%
- Eos ([…], time 7 day): 1%
- Fbg ([…], time 7 day): 268.6 mg/dL
- Hb ([…], time 7 day): 13.4 g/dL
- Ht ([…], time 7 day): 39.5%
- Lym ([…], time 7 day): 73.4%
- MCH ([…], time 7 day): 20.9 pg
- MCHC ([…], time 7 day): 34%
- MCV ([…], time 7 day): 61.5 fL
- Mono ([…], time 7 day): 3%
- Neu ([…], time 7 day): 21.8%
- PT ([…], time 7 day): 13.1 s
- Plat ([…], time 7 day): 116 x10_4/uL
- RBC ([…], time 7 day): 642.2 x10_4/ul
- Ret ([…], time 7 day): 5.8%
- WBC ([…], time 7 day): 107.7 x10_2/uL
- APTT ([…], time 14 day): 16.6 s
- Bas ([…], time 14 day): 0%
- Eos ([…], time 14 day): 1%
- Fbg ([…], time 14 day): 294.2 mg/dL
- Hb ([…], time 14 day): 14.7 g/dL
- Ht ([…], time 14 day): 42.4%
- Lym ([…], time 14 day): 78.8%
- MCH ([…], time 14 day): 21.3 pg
- MCHC ([…], time 14 day): 34.7%
- MCV ([…], time 14 day): 61.3 fL
- Mono ([…], time 14 day): 2.6%
- Neu ([…], time 14 day): 17.2%
- PT ([…], time 14 day): 13.1 s
- Plat ([…], time 14 day): 114.8 x10_4/uL
- RBC ([…], time 14 day): 692.2 x10_4/ul
- Ret ([…], time 14 day): 4.6%
- WBC ([…], time 14 day): 86.6 x10_2/uL
- APTT ([…], time 28 day): 17.9 s
- Bas ([…], time 28 day): 0.6%
- Eos ([…], time 28 day): 1%
- Fbg ([…], time 28 day): 269 mg/dL
- Hb ([…], time 28 day): 15.9 g/dL
- Ht ([…], time 28 day): 44.1%
- Lym ([…], time 28 day): 80%
- MCH ([…], time 28 day): 20.6 pg
- MCHC ([…], time 28 day): 36.1%
- MCV ([…], time 28 day): 57.1 fL
- Mono ([…], time 28 day): 2.4%
- Neu ([…], time 28 day): 15.2%
- PT ([…], time 28 day): 12.7 s
- Plat ([…], time 28 day): 109.5 x10_4/uL
- RBC ([…], time 28 day): 771.4 x10_4/ul
- Ret ([…], time 28 day): 2.6%
- WBC ([…], time 28 day): 116.8 x10_2/uL
- KIDNEY_L ([…], time 7 day): 1.1 g
- KIDNEY_R ([…], time 7 day): 1.1 g
- KIDNEY_TOTAL ([…], time 7 day): 2.3 g
- KIDNEY_L ([…], time 14 day): 1.3 g
- KIDNEY_R ([…], time 14 day): 1.3 g
- KIDNEY_TOTAL ([…], time 14 day): 2.5 g
- KIDNEY_L ([…], time 28 day): 1.4 g
- KIDNEY_R ([…], time 28 day): 1.3 g
- KIDNEY_TOTAL ([…], time 28 day): 2.7 g
- LIVER ([…], time 7 day): 11.6 g
- LIVER ([…], time 14 day): 14 g
- LIVER ([…], time 28 day): 14.4 g
- A/G ([…], time 7 day): 0.9
- ALP ([…], time 7 day): 1546.6 IU/L
- ALT ([…], time 7 day): 44.4 IU/L
- AST ([…], time 7 day): 75.6 IU/L
- BUN ([…], time 7 day): 15.6 mg/dL
- CRE ([…], time 7 day): 0.2 mg/dL
- Ca ([…], time 7 day): 10.4 mg/dL
- Cl ([…], time 7 day): 104.4 meq/L
- DBIL ([…], time 7 day): 0.016 mg/dL
- GLC ([…], time 7 day): 179 mg/dL
- IP ([…], time 7 day): 8 mg/dL
- K ([…], time 7 day): 4.2 meq/L
- LDH ([…], time 7 day): 75.6 IU/L
- Na ([…], time 7 day): 142 meq/L
- PL ([…], time 7 day): 141.6 mg/dL
- RALB ([…], time 7 day): 2.5 g/dL
- TBIL ([…], time 7 day): 0.024 mg/dL
- TC ([…], time 7 day): 73.4 mg/dL
- TG ([…], time 7 day): 117.8 mg/dL
- TP ([…], time 7 day): 5.4 g/dL
- gamma-GTP ([…], time 7 day): 1 IU/L
- A/G ([…], time 14 day): 0.8
- ALP ([…], time 14 day): 1343.2 IU/L
- ALT ([…], time 14 day): 46.6 IU/L
- AST ([…], time 14 day): 72.2 IU/L
- BUN ([…], time 14 day): 16.8 mg/dL
- CRE ([…], time 14 day): 0.2 mg/dL
- Ca ([…], time 14 day): 11.2 mg/dL
- Cl ([…], time 14 day): 105.2 meq/L
- DBIL ([…], time 14 day): 0.014 mg/dL
- GLC ([…], time 14 day): 182.6 mg/dL
- IP ([…], time 14 day): 8.7 mg/dL
- K ([…], time 14 day): 4 meq/L
- LDH ([…], time 14 day): 68.4 IU/L
- Na ([…], time 14 day): 144.2 meq/L
- PL ([…], time 14 day): 158.6 mg/dL
- RALB ([…], time 14 day): 2.7 g/dL
- TBIL ([…], time 14 day): 0.022 mg/dL
- TC ([…], time 14 day): 83.6 mg/dL
- TG ([…], time 14 day): 119.4 mg/dL
- TP ([…], time 14 day): 6 g/dL
- gamma-GTP ([…], time 14 day): 1 IU/L
- A/G ([…], time 28 day): 0.8
- ALP ([…], time 28 day): 1018.2 IU/L
- ALT ([…], time 28 day): 37.8 IU/L
- AST ([…], time 28 day): 66.8 IU/L
- BUN ([…], time 28 day): 16.6 mg/dL
- CRE ([…], time 28 day): 0.2 mg/dL
- Ca ([…], time 28 day): 11.2 mg/dL
- Cl ([…], time 28 day): 105.2 meq/L
- DBIL ([…], time 28 day): 0.016 mg/dL
- GLC ([…], time 28 day): 179.4 mg/dL
- IP ([…], time 28 day): 7.5 mg/dL
- K ([…], time 28 day): 3.9 meq/L
- LDH ([…], time 28 day): 76.8 IU/L
- Na ([…], time 28 day): 143.4 meq/L
- PL ([…], time 28 day): 134.4 mg/dL
- RALB ([…], time 28 day): 2.7 g/dL
- TBIL ([…], time 28 day): 0.03 mg/dL
- TC ([…], time 28 day): 71.6 mg/dL
- TG ([…], time 28 day): 134.8 mg/dL
- TP ([…], time 28 day): 6.2 g/dL
- gamma-GTP ([…], time 28 day): 1 IU/L
